Laboratory results from patent publication US20260109699A1, “AZOLE DERIVATIVES AS SHP2 INHIBITORS” (IRBM S.P.A., priority 2022, published 2026).

Legend:
[1] = Determination of brain penetration in SD rats; type: in vivo; settings: Sprague-Dawley (SD), rat; male SD rats, IV 0.2 mg/kg, unbound brain to plasma ratio at 8 h; read-out: Kpuu, brain
Method: Total brain levels, expressed as brain/plasma ratio (Kp,brain) were measured by Cbrain@8h/Cplasma@8h in SD rats after IV administration (see Pharmaceutical Research, Vol. 25, No. 8, August 2008 DOI: 10.1007/s11095-007-9502-2; Pharmaceutical Research (2022) 39:1321-1341 https://doi.org/10.1007/s11095-022-03246-6). Unbound fraction of each molecule in biological matrix was determined by in vitro plasma and brain binding assay. Kpuu, brain was calculated by the following equation: […]
In vitro plasma and brain binding assay was carried out on a RED (Rapid Equilibrium Dialysis) device. Unbound fraction (fu) of each molecule in the brain homogenate and plasma were calculated by the ratio of the buffer side response to the brain homogenate/plasma side response. An IV study design was used as the in vivo screening model to identify brain penetration of each molecule. Male naïve SD rats (n=3) were intravenously dosed with each molecule at 0.2 mg/kg in DMSO/Propylene Glycol/Water, 20:60:20 (v/v/v). At 0.083, 0.25, 0.5, 1, 2, 4, and 8 h post-dose plasma samples were collected via tail vein and brain tissue was harvested at the 8 h time point and homogenized in 3× volume of water. All samples were stored at ˜−80° C. prior to LC/MS/MS analysis. At the 8 h time point, the unbound brain to plasma ratios were generated to identify molecules with Kpuu, brain values>0.3 which is indicative of good passive brain penetration.

[2] = biological target: T1, SHP-2 enzyme (Met1-Leu525), SHP2wt (Homo sapiens, UniProt Q06124); test: SHP2 inhibition enzymatic assay; type: biochemical; settings: 0.5 nM SHP-2 activated by 500 nM IRS1 peptide, 75 μM DiFMUP substrate
T1 construct: synthetized by Origene, Met1-Leu525, cat #TP750155; purchased Origene TP750155
T1 sequence (Q06124 1-525): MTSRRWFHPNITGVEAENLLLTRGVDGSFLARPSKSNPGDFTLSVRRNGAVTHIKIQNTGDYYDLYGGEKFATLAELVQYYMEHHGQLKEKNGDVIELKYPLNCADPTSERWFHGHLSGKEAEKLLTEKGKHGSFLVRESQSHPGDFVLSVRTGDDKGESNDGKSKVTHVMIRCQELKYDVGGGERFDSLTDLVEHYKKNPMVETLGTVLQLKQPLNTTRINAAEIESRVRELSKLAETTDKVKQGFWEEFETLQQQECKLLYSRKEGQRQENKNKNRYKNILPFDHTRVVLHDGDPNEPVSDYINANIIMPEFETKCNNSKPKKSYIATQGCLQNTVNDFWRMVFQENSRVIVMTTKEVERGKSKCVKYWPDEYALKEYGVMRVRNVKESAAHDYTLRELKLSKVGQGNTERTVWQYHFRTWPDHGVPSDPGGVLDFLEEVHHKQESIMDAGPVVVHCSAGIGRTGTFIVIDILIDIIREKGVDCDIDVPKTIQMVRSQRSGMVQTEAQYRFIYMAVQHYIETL
Procedure, shortened: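 Human SHP2 (Met1-Leu525, 0.5 nM) activated by 500 nM bis-phosphorylated IRS1 peptide, pre-incubated 30 min with compound, then 75 μM DiFMUP for 30 min at rt in HEPES pH 7.2, NaCl/KCl, EDTA, Tween-20, 5 mM DTT. Reaction quenched with bpV, fluorescence read; IC50 by four-parameter logistic fit.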

[3] = system: phospho-ERK1/2 (Thr202/Tyr204); test: Phospho-ERK cellular assay; type: cell-based; settings: Homo sapiens; KYSE-520 cells, 2 h at 37° C, TR-FRET; read-out: pERK IC50
Procedure, shortened: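 KYSE-520 cells treated overnight-after-plating with serially diluted compounds for 2 h at 37° C, then lysed. Phospho-ERK1/2 measured by TR-FRET after overnight antibody incubation at rt; inhibition normalized between DMSO (0%) and no-cell (100%) wells, IC50 from four-parameter logistic fit.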

[4] = biological target: T2, recombinant SHP2 protein (AviTag-G4SG4S-SHP2(1-525)) (Homo sapiens, UniProt Q06124); test: Binding kinetic assay by surface plasmon resonance (SPR); settings: for Residence time 1/koff SPR: 1/koff from SPR; for koff: Biacore T200, single cycle kinetic, 25° C, 1:1 Langmuir model
T2 construct: recombinant SHP2 protein (AviTag-G4SG4S-SHP2(1-525)); purchased VIVA Biotech Ltd (custom production)
T2 sequence (Q06124 1-525): T1 sequence (Q06124 1-525)
Method: A N-term biotinylated recombinant SHP2 protein (AviTag-G4SG4S-SHP2(1-525)) was custom produced by VIVA Biotech Ltd. Binding kinetic rate constants were measured by SPR, using a Biacore T200 instrument. The recombinant SHP2 protein was diluted at […] in HBS-P+ buffer, then captured on a series S streptavidin sensor chip up to 5000 RU. Binding of compounds was assessed by a single cycle kinetic procedure (SCK): compounds were diluted in HBS-EP+ supplemented with 20% DMSO (from 300 to 3.7 nM, 3 fold dilution), injected for 120 s over the ligand, then dissociation rate measured for 3600 s, at […] and 25° C. Sensorgrams were analysed by Biacore T200 evaluation software: binding rate constants (kon, koff) and affinity (KD) were calculated by curve filling according to a 1:1 Langmuir model. Each molecule was tested in triplicate on separate flow channels.

Kp uu at 8 h [1]	IC50 [2]	IC50 [3]	Residence time 1/koff SPR [4]	koff [4]	SMILES
> 0.3	≤ 50 nM	< 100 nM	11001 s	9.09e-05 s⁻¹	N[C@@H]1c2ccnn2CC12CCN(c1cnc(Sc3ccccc3F)cn1)CC2 [Example 21, (S)-1-(5-((2-fluorophenyl)thio)pyrazin-2-yl)-4′H,6′H-spiro[piperidine-4,5′-pyrrolo[1,2-b]pyrazol]-4′-amine]
< 0.3	≤ 50 nM	< 100 nM	53571 s	1.87e-05 s⁻¹	Cc1cccc(Sc2cnc(N3CCC4(CC3)Cn3nccc3[C@H]4N)cn2)c1F [Example 36, (S)-1-(5-((2-fluoro-3-methylphenyl)thio)pyrazin-2-yl)-4′H,6′H-spiro[piperidine-4,5′-pyrrolo[1,2-b]pyrazol]-4′-amine]
> 0.3	≤ 50 nM	< 100 nM	5474 s	0.000183 s⁻¹	N[C@@H]1c2ccnn2CC12CCN(c1cnc(Sc3ccnc4ccccc34)cn1)CC2 [Example 39, (S)-1-(5-(quinolin-4-ylthio)pyrazin-2-yl)-4′H,6′H-spiro[piperidine-4,5′-pyrrolo[1,2-b]pyrazol]-4′-amine]
> 0.3	≤ 50 nM	< 100 nM	3417 s	0.000293 s⁻¹	N[C@@H]1c2ccnn2CC12CCN(c1cnc(Sc3cccc(-n4ccnc4)c3Cl)cn1)CC2 [Example 44, (S)-1-(5-((2-chloro-3-(1H-imidazol-1-yl)phenyl)thio)pyrazin-2-yl)-4′H,6′H-spiro[piperidine-4,5′-pyrrolo[1,2-b]pyrazol]-4′-amine]
